This note sets out measurements from patent publication US20230324400A1, “MULTIPLEXED PROTEOMICS AND PHOSPHOPROTEOMICS” (The General Hospital Corporation, priority 2015, published 2023).

Common to all, as to format: cell-based
In assay [1] the target is T1, ALK (Homo sapiens, UniProt Q9UM73). Kind of assay: Phosphoproteomic analysis of ALK activity after Ceritinib treatment, resistant cell lines. Particulars: LDKR1-4, 300 nM Ceritinib, 24 hours. The protocol:
(§1) The H3122 parental and LDKR1-4 cell lines were each grown in culture with or without the addition of Ceritinib for 24 hours, and harvested cells were subsequently processed for both proteomic and phosphoproteomic analyses. Specifically, each of the cell lines was cultured in RPMI-1640 media supplemented with 10% FBS, 100 units/mL penicillin, and 100 μg/mL streptomycin. Cells were treated for 24 hours with 300 nM Ceritinib (also known as LDK378). Cells were collected, and the cell pellets were resuspended in mammalian lysis buffer and lysed by passage through a 21 gauge needle. The lysate was centrifuged at 15,000×g for 5 minutes at 4° C., and insoluble debris was discarded.
(§2) The lysates were then prepared for mass spectrometry analysis. Samples were reduced with DTT, alkylated with iodoacetamide, and precipitated with methanol/chloroform. Protein was digested overnight at room temperature with endoproteinase Lys-C(obtained from Wako Chemicals, Richmond, VA) followed by digestion with sequencing-grade trypsin (obtained from Promega Corp., Madison, WI) for 6 hours at 37° C. Samples were quenched with 1% TFA and desalted using Sep-Pak C18 (SPE) cartridges (obtained from Waters Corp., Milford, MA). The peptide concentration of each sample was determined using a BCA assay. […]

For assay [2], the target named is T1, ALK. Kind of assay: Phosphoproteomic analysis of ALK phosphorylation after Ceritinib treatment, parental H3122. Particulars: 300 nM Ceritinib, 24 hours. The protocol:
as §1, §2

Assay [3] deals with LDKR1-4 cell lines (Ceritinib-resistant clones of H3122). Kind of assay: Ceritinib sensitivity (IC50) of resistant clones LDKR1-4. The protocol: (§3) In the particular study reported here, resistance to the small molecule ALK inhibitor Ceritinib was studied. The patient-derived cell line H3122 is a NSCLC line with an EML4-ALK fusion, and it is sensitive to Ceritinib. To simulate the clinical development of therapeutic resistance following initial treatment, this cell line was cultured over a period of 6 months with low but increasing doses of Ceritinib. […] These clones were expanded and comprise the cell lines LDKR1-4.
(§4) FIG. 5 is a schematic diagram showing the development of the cell lines. The ALK-positive H3122 cell line, which is sensitive to the ALK inhibitor Ceritinib (ICso=53 nM), was treated with escalating doses of Ceritinib over a period 6 months. Resistant clones LDKR1-4 were obtained with ICso values in a range from 1494 nM to 3897 nM.

The subject of assay [4] is H3122 cell line (NSCLC, EML4-ALK fusion). Kind of assay: Ceritinib sensitivity (IC50) of parental H3122 cell line. The settings on record: Homo sapiens, NCI-H3122; ALK-positive H3122 parental cell line. The protocol:
as §3, §4

T1 sequence (Q9UM73 with tags, fused parts or gaps): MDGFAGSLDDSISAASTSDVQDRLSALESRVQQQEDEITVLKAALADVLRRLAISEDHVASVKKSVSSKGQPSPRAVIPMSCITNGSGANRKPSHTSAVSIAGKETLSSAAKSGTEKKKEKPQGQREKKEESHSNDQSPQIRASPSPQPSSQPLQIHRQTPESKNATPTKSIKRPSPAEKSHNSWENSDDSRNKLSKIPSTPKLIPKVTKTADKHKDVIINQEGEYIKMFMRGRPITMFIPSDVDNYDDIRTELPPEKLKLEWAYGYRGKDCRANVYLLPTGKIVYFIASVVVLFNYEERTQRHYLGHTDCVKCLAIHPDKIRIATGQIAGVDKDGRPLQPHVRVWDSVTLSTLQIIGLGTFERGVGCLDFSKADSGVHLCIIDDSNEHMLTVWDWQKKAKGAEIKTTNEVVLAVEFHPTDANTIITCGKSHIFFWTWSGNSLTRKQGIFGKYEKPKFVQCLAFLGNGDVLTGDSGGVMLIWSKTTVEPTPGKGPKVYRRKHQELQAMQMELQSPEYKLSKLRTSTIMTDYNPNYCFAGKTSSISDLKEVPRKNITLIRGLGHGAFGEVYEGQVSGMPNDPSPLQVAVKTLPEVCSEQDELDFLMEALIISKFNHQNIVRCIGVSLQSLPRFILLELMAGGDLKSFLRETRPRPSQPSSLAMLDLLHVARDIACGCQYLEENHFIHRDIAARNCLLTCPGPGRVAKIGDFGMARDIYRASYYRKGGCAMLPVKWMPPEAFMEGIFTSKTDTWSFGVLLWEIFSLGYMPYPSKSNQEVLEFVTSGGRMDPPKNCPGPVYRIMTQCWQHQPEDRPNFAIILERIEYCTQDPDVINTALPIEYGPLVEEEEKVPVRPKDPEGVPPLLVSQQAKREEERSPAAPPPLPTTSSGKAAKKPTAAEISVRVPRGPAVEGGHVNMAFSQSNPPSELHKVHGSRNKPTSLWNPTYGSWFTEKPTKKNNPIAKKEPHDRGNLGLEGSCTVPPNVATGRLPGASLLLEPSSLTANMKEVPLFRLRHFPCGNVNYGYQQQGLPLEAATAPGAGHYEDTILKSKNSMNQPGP

In general, IC50 refers to the concentration that gives 50% inhibition. Turning to `Cc1cc(Nc2ncc(Cl)c(Nc3ccccc3S(=O)(=O)C(C)C)n2)c(OC(C)C)cc1C1CCNCC1` [Ceritinib], at ALK [1], the “Inhibition of ALK activity in resistant cell lines” value was “continued to be effective at inhibiting ALK activity in at least three of the four resistant cell lines”. In addition, on ALK [2], the “ALK Thr 1506/Tyr 1507/Ser 1509 phosphorylation, ratio to parental cell line with no drug” value is on record as “decreasing fourfold upon drug treatment” and the “ALK Tyr 1078 phosphorylation, ratio to parental cell line with no drug” value is given as “decreased upon drug treatment”. Besides, the IC50 in assay [3] (Homo sapiens, NCI-H3122, resistant clones LDKR1-4, obtained after 6 months of escalating doses of Ceritinib) is 1490 to 3900 nM. Also, the “IC50 of resistant clones relative to parental sensitive cell line” value in assay [3] (four single resistant clones LDKR1-4 vs parental H3122) is “at least twenty times higher”. In assay [4], the IC50 stood at 53 nM.
